Measured values published in patent US7129272B2, “Apoptosis inhibitor” (Sucampo AG, priority 2000, dated 2006).

Tested on: retina
Assay: Light-induced retinal apoptosis in rats under continuous light exposure, TUNEL staining
Type: in vivo, SD strain rats
Settings: SD rats exposed to 1000 lux for 4 days; 10 μg/kg subcutaneously three times a day for 4 days; TUNEL-positive cells to total cells per 200 μm of retina; n=5; control 9.3 ± 0.8; p < 0.01
Protocol: (1) Breeding Condition and Administration Method SD strain rats (male, 11 weeks old) were continuously exposed to 1000 lux of light for 4 days. During the exposure of light, the test group animals were administered subcutaneously with a composition comprising 2-decarboxy-2-(2-carboxyethyl)-13,14-dihydro-15-keto-16,16-difluoro-20-ethyl-PGE, isopropyl ester of the following formula (IV) at the amount of 10 μg/kg of the active ingredient per single administration three times a day, for 4 days. The control group animals were administrated subcutaneously the same volume of the vehicle. [drawing 7] (2) Preparation and Staining After the continuous light exposure was finished, animals of test and control groups were sacrificed by excessive etherization and both eyes of each animal were removed. The eyes were immediately fixed in a 2% paraformaldehyde and 2.5% glutaraldehyde solution in phosphate buffer, dehydrated with alcohol, and then embedded in paraffin. Thus fixed eyes were sliced parallel to the meridian of eye to provide thin retinal preparations each comprises optic disc. The obtained slices were subjected to tunnel staining (Apoptag® Intergen Company). (3) Estimation Total cell number and the number of tunnel-positive cells per 200 μm of the retina were counted and the ratio of the TUNEL-positive cells to the total cell number was determined. […]

## CCCCCCC(F)(F)C(=O)CC[C@H]1[C@H](O)CC(=O)[C@@H]1CCCCCCCCC(=O)OC(C)C [formula (IV), 2-decarboxy-2-(2-carboxyethyl)-13,14-dihydro-15-keto-16,16-difluoro-20-ethyl-PGE, isopropyl ester]
  Ratio of the TUNEL-positive cells (%) (Ave ± SE): 1.5 ± 0.2 %
